EC50 data for 32 compounds are collected here from ChEMBL document CHEMBL5226282, “TLR2 Agonistic Small Molecules: Detailed Structure-Activity Relationship, Applications, and Future Prospects” (J Med Chem, 2021).

The target in assay [1] is Toll-like receptor 1/2 (Mus musculus). Briefly: Agonist activity at TLR2/TLR1 in mouse Macrophage cell line.
The target in assay [2] is Toll-like receptor 1/2 (Homo sapiens, UniProt O60603+Q15399). The experiment in a line: Agonist activity at TLR2/TLR1 in human THP-1 cells. The format is cell-based.
Toll-like receptor 1/2, sequence (O60603 whole entry): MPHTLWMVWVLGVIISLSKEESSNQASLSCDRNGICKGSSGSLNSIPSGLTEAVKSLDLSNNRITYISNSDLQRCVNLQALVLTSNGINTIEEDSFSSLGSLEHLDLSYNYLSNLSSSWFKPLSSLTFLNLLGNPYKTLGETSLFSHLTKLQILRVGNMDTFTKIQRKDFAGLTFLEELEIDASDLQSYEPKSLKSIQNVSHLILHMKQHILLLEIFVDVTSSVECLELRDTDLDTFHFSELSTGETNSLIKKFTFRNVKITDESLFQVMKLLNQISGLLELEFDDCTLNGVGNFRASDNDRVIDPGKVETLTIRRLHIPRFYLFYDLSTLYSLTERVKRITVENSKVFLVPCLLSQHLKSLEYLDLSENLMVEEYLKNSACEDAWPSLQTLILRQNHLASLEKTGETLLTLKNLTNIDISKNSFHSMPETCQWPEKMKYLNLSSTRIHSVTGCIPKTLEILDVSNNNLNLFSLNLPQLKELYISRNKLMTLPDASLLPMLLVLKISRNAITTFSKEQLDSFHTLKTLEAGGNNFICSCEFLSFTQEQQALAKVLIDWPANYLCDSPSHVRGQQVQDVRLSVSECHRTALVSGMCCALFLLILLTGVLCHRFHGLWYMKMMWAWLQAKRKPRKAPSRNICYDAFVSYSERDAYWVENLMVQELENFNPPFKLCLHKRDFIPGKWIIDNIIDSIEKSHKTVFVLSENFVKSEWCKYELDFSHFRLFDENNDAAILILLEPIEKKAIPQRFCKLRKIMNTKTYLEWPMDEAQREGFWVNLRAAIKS
Toll-like receptor 1/2, sequence (Q15399 whole entry): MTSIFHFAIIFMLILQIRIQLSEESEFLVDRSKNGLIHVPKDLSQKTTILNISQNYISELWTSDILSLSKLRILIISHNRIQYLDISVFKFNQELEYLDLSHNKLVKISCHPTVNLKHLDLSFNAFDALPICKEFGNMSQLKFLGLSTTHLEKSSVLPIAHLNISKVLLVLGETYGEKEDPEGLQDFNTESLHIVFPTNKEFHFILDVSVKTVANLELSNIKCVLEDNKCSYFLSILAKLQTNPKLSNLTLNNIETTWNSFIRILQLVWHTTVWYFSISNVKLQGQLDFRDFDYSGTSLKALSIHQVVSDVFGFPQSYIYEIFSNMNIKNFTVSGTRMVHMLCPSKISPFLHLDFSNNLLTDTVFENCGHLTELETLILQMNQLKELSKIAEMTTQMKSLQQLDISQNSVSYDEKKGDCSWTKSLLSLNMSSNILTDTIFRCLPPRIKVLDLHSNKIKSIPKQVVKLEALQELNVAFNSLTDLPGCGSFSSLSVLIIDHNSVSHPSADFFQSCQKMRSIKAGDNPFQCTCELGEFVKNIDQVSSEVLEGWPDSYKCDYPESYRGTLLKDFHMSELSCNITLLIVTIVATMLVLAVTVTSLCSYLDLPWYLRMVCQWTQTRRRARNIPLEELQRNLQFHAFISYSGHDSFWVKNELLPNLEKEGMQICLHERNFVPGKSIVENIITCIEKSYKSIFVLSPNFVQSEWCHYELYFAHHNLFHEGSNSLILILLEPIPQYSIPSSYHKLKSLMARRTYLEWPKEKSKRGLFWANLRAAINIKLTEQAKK

The structures appear in SMILES notation.

For `O=C(N[C@H]1C[C@@H]1c1ccccc1)[C@@H]1CN(C(=O)c2ccc(C(=O)N3C[C@@H](C(=O)N[C@H]4C[C@@H]4c4ccccc4)[C@H](C(=O)N[C@H]4C[C@@H]4c4ccccc4)C3)s2)C[C@H]1C(=O)N[C@H]1C[C@@H]1c1ccccc1`, the EC50 (as a rule, the concentration needed to bring the measured effect to its halfway point) was greater than 5000 nM in assay [1] and 350 nM in assay [2].
On to `O=C(NCCc1ccc(F)cc1)[C@@H]1CN(C(=O)c2ccc(C(=O)N3C[C@@H](C(=O)NCCc4ccc(F)cc4)[C@H](C(=O)NCCc4ccc(F)cc4)C3)cc2)C[C@H]1C(=O)NCCc1ccc(F)cc1`, for which the concentration giving a half-maximal response (EC50) in assay [1] is greater than 5000 nM; in assay [2], 50 nM.
In the same order, the values of `O=C(N[C@H]1C[C@@H]1c1ccccc1)[C@@H]1CN(C(=O)c2cccc3c(C(=O)N4C[C@@H](C(=O)N[C@H]5C[C@@H]5c5ccccc5)[C@H](C(=O)N[C@H]5C[C@@H]5c5ccccc5)C4)cccc23)C[C@H]1C(=O)N[C@H]1C[C@@H]1c1ccccc1` are greater than 5000 nM and greater than 5000 nM.
For `O=C(N[C@H]1C[C@@H]1c1ccccc1)[C@@H]1CN(C(=O)Cc2cccc(CC(=O)N3C[C@@H](C(=O)N[C@H]4C[C@@H]4c4ccccc4)[C@H](C(=O)N[C@H]4C[C@@H]4c4ccccc4)C3)c2)C[C@H]1C(=O)N[C@H]1C[C@@H]1c1ccccc1`, the concentration giving a half-maximal response (EC50) in assay [1] and in assay [2] was greater than 5000 nM each time.
Turning to `O=C(NCCc1ccc(F)cc1)[C@@H]1CN(C(=O)[C@@H]2CCC[C@H](C(=O)N3C[C@@H](C(=O)NCCc4ccc(F)cc4)[C@H](C(=O)NCCc4ccc(F)cc4)C3)C2)C[C@H]1C(=O)NCCc1ccc(F)cc1`, the EC50 in assay [1] and in assay [2] was greater than 5000 nM in each case.
As to `O=C(NCCc1ccc(F)cc1)[C@@H]1CN(C(=O)C/C=C/CC(=O)N2C[C@@H](C(=O)NCCc3ccc(F)cc3)[C@H](C(=O)NCCc3ccc(F)cc3)C2)C[C@H]1C(=O)NCCc1ccc(F)cc1`, the EC50 in assay [1] and in assay [2] was greater than 5000 nM throughout.
For `O=C(N[C@H]1C[C@@H]1c1ccccc1)[C@@H]1CN(C(=O)c2ccc(-c3ccc(C(=O)N4C[C@@H](C(=O)N[C@H]5C[C@@H]5c5ccccc5)[C@H](C(=O)N[C@H]5C[C@@H]5c5ccccc5)C4)cc3)cc2)C[C@H]1C(=O)N[C@H]1C[C@@H]1c1ccccc1`, the concentration giving a half-maximal response (EC50) was 2300 nM in assay [1] and 90 nM in assay [2].
Turning to `O=C(O)[C@@H]1CN(C(=O)c2ccc(C(=O)N3C[C@@H](C(=O)N[C@H]4C[C@@H]4c4ccccc4)[C@H](C(=O)N[C@@H]4C[C@H]4c4ccccc4)C3)cc2)C[C@H]1C(=O)N[C@H]1C[C@@H]1c1ccccc1`, the EC50 in assay [1] was greater than 5000 nM; in assay [2] it was 200 nM.
In the same order, the values of `O=C(N[C@H]1C[C@@H]1c1ccccc1)[C@@H]1CN(C(=O)c2ccc(C(=O)N3C[C@@H](C(=O)N[C@H]4C[C@@H]4c4ccccc4)[C@H](C(=O)N[C@H]4C[C@@H]4c4ccccc4)C3)c(O)c2)C[C@H]1C(=O)N[C@H]1C[C@@H]1c1ccccc1` are greater than 5000 nM and 20 nM.
The matching figures for `CCCCCCCCCCCCCCCCNC(=O)[C@@H]1CN(C(=O)c2ccc(C(=O)N3C[C@@H](C(=O)N[C@H]4C[C@@H]4c4ccccc4)[C@H](C(=O)N[C@@H]4C[C@H]4c4ccccc4)C3)cc2)C[C@H]1C(=O)NCCCCCCCCCCCCCCCC`: 1000 nM and 2.5 nM.
For `O=C(N[C@H]1C[C@@H]1c1ccccc1)[C@@H]1CN(C(=O)C/C=C/CC(=O)N2C[C@@H](C(=O)N[C@H]3C[C@@H]3c3ccccc3)[C@H](C(=O)N[C@H]3C[C@@H]3c3ccccc3)C2)C[C@H]1C(=O)N[C@H]1C[C@@H]1c1ccccc1`, the EC50 in assay [1] and in assay [2] was greater than 5000 nM each time.
As for `COC(=O)[C@@H]1CN(C(=O)c2ccc(C(=O)N3C[C@@H](C(=O)N[C@H]4C[C@@H]4c4ccccc4)[C@H](C(=O)N[C@@H]4C[C@H]4c4ccccc4)C3)cc2)C[C@H]1C(=O)N[C@H]1C[C@@H]1c1ccccc1`, the EC50 was determined as 640 nM in assay [1] and 15 nM in assay [2].
For `CCCCNC(=O)[C@@H]1CN(C(=O)c2ccc(C(=O)N3C[C@@H](C(=O)N[C@H]4C[C@@H]4c4ccccc4)[C@H](C(=O)N[C@@H]4C[C@H]4c4ccccc4)C3)cc2)C[C@H]1C(=O)N[C@H]1C[C@@H]1c1ccccc1`, the 50% effective concentration (EC50) in assay [1] worked out at 30 nM; in assay [2] it was 2 nM.
Turning to `CCCCNC(=O)[C@@H]1CN(C(=O)c2ccc(C(=O)N3C[C@@H](C(=O)N[C@H]4C[C@@H]4c4ccccc4)[C@H](C(=O)N[C@@H]4C[C@H]4c4ccccc4)C3)cc2)C[C@H]1C(=O)NCCCC`, the half-maximal effective concentration (EC50) was found to be 60 nM in assay [1] and 0.28 nM in assay [2].
The matching figures for `CCCCCCCCCCCCCCNC(=O)[C@@H]1CN(C(=O)c2ccc(C(=O)N3C[C@@H](C(=O)N[C@H]4C[C@@H]4c4ccccc4)[C@H](C(=O)N[C@@H]4C[C@H]4c4ccccc4)C3)cc2)C[C@H]1C(=O)N[C@H]1C[C@@H]1c1ccccc1`: 1.1 nM and 0.08 nM.
Regarding `O=C(N[C@H]1C[C@@H]1c1ccccc1)[C@@H]1CN(C(=O)c2cc(Cl)c(C(=O)N3C[C@@H](C(=O)N[C@H]4C[C@@H]4c4ccccc4)[C@H](C(=O)N[C@H]4C[C@@H]4c4ccccc4)C3)cc2Cl)C[C@H]1C(=O)N[C@H]1C[C@@H]1c1ccccc1`, the EC50 in assay [1] is greater than 5000 nM; in assay [2], 360 nM.
`CCCCCCNC(=O)[C@@H]1CN(C(=O)c2ccc(C(=O)N3C[C@@H](C(=O)NCCCCCC)[C@H](C(=O)N[C@@H]4C[C@H]4c4ccccc4)C3)cc2)C[C@H]1C(=O)N[C@@H]1C[C@H]1c1ccccc1`: the results for the concentration for a half-maximal effect (EC50) in assay [1] and in assay [2] were 1100 nM and 0.8 nM, respectively.
`O=C(N[C@H]1C[C@@H]1c1ccccc1)[C@@H]1CN(C(=O)/C=C/C=C/C(=O)N2C[C@@H](C(=O)N[C@H]3C[C@@H]3c3ccccc3)[C@H](C(=O)N[C@H]3C[C@@H]3c3ccccc3)C2)C[C@H]1C(=O)N[C@H]1C[C@@H]1c1ccccc1`: the concentration giving a half-maximal response (EC50) in assay [1] was 130 nM; in assay [2], 0.2 nM.
The matching figures for `O=C(N[C@H]1C[C@@H]1c1ccccc1)[C@@H]1CN(C(=O)Cc2ccc(CC(=O)N3C[C@@H](C(=O)N[C@H]4C[C@@H]4c4ccccc4)[C@H](C(=O)N[C@H]4C[C@@H]4c4ccccc4)C3)cc2)C[C@H]1C(=O)N[C@H]1C[C@@H]1c1ccccc1`: greater than 5000 nM and greater than 5000 nM.
Turning to `O=C(NCCc1ccc(F)cc1)[C@@H]1CN(C(=O)[C@H]2CC[C@@H](C(=O)N3C[C@@H](C(=O)NCCc4ccc(F)cc4)[C@H](C(=O)NCCc4ccc(F)cc4)C3)CC2)C[C@H]1C(=O)NCCc1ccc(F)cc1`, the concentration for a half-maximal effect (EC50) in assay [1] and in assay [2] was greater than 5000 nM in each case.
On to `CCCCCCCCCCCCNC(=O)[C@@H]1CN(C(=O)c2ccc(C(=O)N3C[C@@H](C(=O)N[C@H]4C[C@@H]4c4ccccc4)[C@H](C(=O)N[C@@H]4C[C@H]4c4ccccc4)C3)cc2)C[C@H]1C(=O)N[C@H]1C[C@@H]1c1ccccc1`, for which the values for the EC50 in assay [1] and in assay [2] were 2.1 nM and 0.1 nM, respectively.
In the case of `O=C(N[C@H]1C[C@@H]1c1ccc(Cl)cc1)[C@@H]1CN(C(=O)c2ccc(C(=O)N3C[C@@H](C(=O)N[C@H]4C[C@@H]4c4ccc(Cl)cc4)[C@H](C(=O)N[C@@H]4C[C@H]4c4ccc(Cl)cc4)C3)cc2)C[C@H]1C(=O)N[C@H]1C[C@@H]1c1ccc(Cl)cc1`, the EC50 in assay [1] is 5000 nM; in assay [2], 40 nM.
Take `O=C(N[C@H]1C[C@@H]1c1ccccc1)[C@@H]1CN(C(=O)c2cc(O)c(C(=O)N3C[C@@H](C(=O)N[C@H]4C[C@@H]4c4ccccc4)[C@H](C(=O)N[C@H]4C[C@@H]4c4ccccc4)C3)cc2O)C[C@H]1C(=O)N[C@H]1C[C@@H]1c1ccccc1`: the results for the EC50 in assay [1] and in assay [2] were greater than 5000 nM and 20 nM, respectively.
As to `CCCCCCCCCCNC(=O)[C@@H]1CN(C(=O)c2ccc(C(=O)N3C[C@@H](C(=O)NCCCCCCCCCC)[C@H](C(=O)N[C@@H]4C[C@H]4c4ccccc4)C3)cc2)C[C@H]1C(=O)N[C@@H]1C[C@H]1c1ccccc1`, the EC50 was determined as 1100 nM in assay [1] and 35 nM in assay [2].
The matching figures for `O=C(N[C@H]1C[C@@H]1c1ccccc1)[C@@H]1CN(C(=O)/C=C/C(=O)N2C[C@@H](C(=O)N[C@H]3C[C@@H]3c3ccccc3)[C@H](C(=O)N[C@H]3C[C@@H]3c3ccccc3)C2)C[C@H]1C(=O)N[C@H]1C[C@@H]1c1ccccc1`: greater than 5000 nM and greater than 5000 nM.
The matching figures for `Nc1cc(C(=O)N2C[C@@H](C(=O)N[C@H]3C[C@@H]3c3ccccc3)[C@H](C(=O)N[C@H]3C[C@@H]3c3ccccc3)C2)ccc1C(=O)N1C[C@@H](C(=O)N[C@H]2C[C@@H]2c2ccccc2)[C@H](C(=O)N[C@H]2C[C@@H]2c2ccccc2)C1`: 140 nM and 1 nM.
In the case of `N#Cc1ccc([C@H]2C[C@@H]2NC(=O)[C@@H]2CN(C(=O)c3ccc(C(=O)N4C[C@@H](C(=O)N[C@H]5C[C@@H]5c5ccc(C#N)cc5)[C@H](C(=O)N[C@@H]5C[C@H]5c5ccc(C#N)cc5)C4)cc3)C[C@H]2C(=O)N[C@H]2C[C@@H]2c2ccc(C#N)cc2)cc1`, the half-maximal effective concentration (EC50) in assay [1] and in assay [2] was greater than 5000 nM throughout.
Regarding `CCCCCCNC(=O)[C@@H]1CN(C(=O)c2ccc(C(=O)N3C[C@@H](C(=O)N[C@H]4C[C@@H]4c4ccccc4)[C@H](C(=O)N[C@@H]4C[C@H]4c4ccccc4)C3)cc2)C[C@H]1C(=O)NCCCCCC`, the results for the EC50 in assay [1] and in assay [2] were 360 nM and 50 nM, respectively.
On to `CCCCCCCCCCCCCCCCNC(=O)[C@@H]1CN(C(=O)c2ccc(C(=O)N3C[C@@H](C(=O)N[C@H]4C[C@@H]4c4ccccc4)[C@H](C(=O)N[C@@H]4C[C@H]4c4ccccc4)C3)cc2)C[C@H]1C(=O)N[C@H]1C[C@@H]1c1ccccc1`, for which the half-maximal effective concentration (EC50) came out at 2.6 nM in assay [1] and 0.5 nM in assay [2].
As for `O=C(N[C@H]1C[C@@H]1c1ccccc1)[C@@H]1CN(C(=O)c2cccc(C(=O)N3C[C@@H](C(=O)N[C@H]4C[C@@H]4c4ccccc4)[C@H](C(=O)N[C@H]4C[C@@H]4c4ccccc4)C3)c2)C[C@H]1C(=O)N[C@H]1C[C@@H]1c1ccccc1`, the EC50 in assay [1] and in assay [2] was greater than 5000 nM throughout.
Regarding `CCCCCCCCCCNC(=O)[C@@H]1CN(C(=O)c2ccc(C(=O)N3C[C@@H](C(=O)N[C@H]4C[C@@H]4c4ccccc4)[C@H](C(=O)N[C@@H]4C[C@H]4c4ccccc4)C3)cc2)C[C@H]1C(=O)NCCCCCCCCCC`, the 50% effective concentration (EC50) in assay [1] amounted to 4 nM; in assay [2] it was 0.18 nM.
In the case of `Cc1ccc([C@H]2C[C@@H]2NC(=O)[C@@H]2CN(C(=O)c3ccc(C(=O)N4C[C@@H](C(=O)N[C@H]5C[C@@H]5c5ccc(C)cc5)[C@H](C(=O)N[C@@H]5C[C@H]5c5ccc(C)cc5)C4)cc3)C[C@H]2C(=O)N[C@H]2C[C@@H]2c2ccc(C)cc2)cc1`, the EC50 in assay [1] is greater than 5000 nM; in assay [2], 360 nM.
